Each block holds one molecule with its values, some of them ahead of it. Calls of active or inactive are those of the source.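 Rule for the calls: active = mean IC50 for reducing PEG3 promoter reporter signal at or below a set limit, with IC50 above the limit in both counter screens; inactive = the rest, including counter screen hits.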
Tests used:
Assay in all cases: inhibition of PEG-3 promoter-driven reporter – cell-based, HeLa, luciferase, CREF/GAPDH counter-screen panel, dose response (AID 624167)
PEG-3 [1] = details: HeLa PEG-Prom luciferase reporter, overnight, CREF/GAPDH counter-screens
PEG-3 [2] = biological target: PEG-3 (UniProt Q6IN02); details: HeLa PEG-Prom luciferase reporter, overnight, CREF/GAPDH counter-screens, mean of runs
Rat fibroblasts (CREF) = details: CREF/GAPDH counter-screens
[3] = run 1, dose range 1, individual replicate IC50 per panel
[4] = run 2, dose range 1, individual replicate IC50 per panel

Chain of PEG-3 (UniProt Q6IN02) (Q6IN02 whole entry, looked up): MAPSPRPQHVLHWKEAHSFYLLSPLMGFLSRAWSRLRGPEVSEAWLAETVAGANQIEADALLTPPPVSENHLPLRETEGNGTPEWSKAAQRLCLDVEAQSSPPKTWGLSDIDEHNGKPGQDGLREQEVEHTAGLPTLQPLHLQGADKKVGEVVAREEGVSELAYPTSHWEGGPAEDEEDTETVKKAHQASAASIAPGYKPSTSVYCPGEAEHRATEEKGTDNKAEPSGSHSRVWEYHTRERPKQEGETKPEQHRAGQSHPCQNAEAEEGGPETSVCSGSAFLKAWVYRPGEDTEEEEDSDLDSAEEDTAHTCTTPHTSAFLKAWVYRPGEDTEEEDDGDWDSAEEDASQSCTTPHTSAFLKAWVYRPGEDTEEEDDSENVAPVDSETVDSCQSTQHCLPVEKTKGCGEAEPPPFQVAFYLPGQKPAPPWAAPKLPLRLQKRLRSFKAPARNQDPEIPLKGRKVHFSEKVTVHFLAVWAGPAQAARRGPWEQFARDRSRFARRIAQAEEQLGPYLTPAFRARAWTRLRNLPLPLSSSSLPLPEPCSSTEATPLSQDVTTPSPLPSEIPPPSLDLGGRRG

Structure (SMILES): COc1cccc(-c2sc3ccccc3c2-c2ccc(OCCN(C)C)cc2)c1
IC50 (PEG-3 [1]; [3]): 10 µM | IC50 (PEG-3 [1]; [4]): 7.61 µM | IC50 (PEG-3 [2]): 8.8 µM | IC50 (Rat fibroblasts (CREF); mean of runs): 14.4 µM | IC50 (Rat fibroblasts (CREF); [3]): 14.6 µM | IC50 (Rat fibroblasts (CREF); [4]): 14.2 µM

Structure (SMILES): CC(=O)N1CCCC(c2cc(C(=O)Nc3ccccc3)no2)C1 (centres undefined)
IC50 (PEG-3 [1]; [3]): 4.87 µM | IC50 (PEG-3 [1]; [4]): 7.94 µM | IC50 (PEG-3 [2]): 6.41 µM | IC50 (Rat fibroblasts (CREF); mean of runs): 9.51 µM | IC50 (Rat fibroblasts (CREF); [3]): 9.26 µM | IC50 (Rat fibroblasts (CREF); [4]): 9.76 µM

Structure (SMILES): Oc1c(I)cc(Cl)c2cccnc12
IC50 (PEG-3 [1]; [3]): 7.91 µM | IC50 (PEG-3 [1]; [4]): 23.5 µM | IC50 (PEG-3 [2]): 15.7 µM | IC50 (Rat fibroblasts (CREF); mean of runs): 17.9 µM | IC50 (Rat fibroblasts (CREF); [3]): 15.7 µM | IC50 (Rat fibroblasts (CREF); [4]): 20.2 µM

Structure (SMILES): Cc1cc(C(=O)CN2C(=O)c3ccccc3S2(=O)=O)c(C)n1-c1ccccc1
IC50 (PEG-3 [1]; [3]): 2.98 µM | IC50 (PEG-3 [1]; [4]): 3.75 µM | IC50 (PEG-3 [2]): 3.36 µM | IC50 (Rat fibroblasts (CREF); mean of runs): 7.33 µM | IC50 (Rat fibroblasts (CREF); [3]): 6.79 µM | IC50 (Rat fibroblasts (CREF); [4]): 7.88 µM

Structure (SMILES): O=c1c2ccccc2sc2ccc(C#CC3(O)CCCCC3)cc12
IC50 (PEG-3 [1]; [3]): 2.93 µM | IC50 (PEG-3 [1]; [4]): > 100 µM | IC50 (PEG-3 [2]): inactive | IC50 (Rat fibroblasts (CREF); mean of runs): 1.81 µM | IC50 (Rat fibroblasts (CREF); [3]): 1.36 µM | IC50 (Rat fibroblasts (CREF); [4]): 2.27 µM

Structure (SMILES): C=C1CC(COc2ccc3c(C)c(Cl)c(=O)oc3c2)(c2ccccc2)OC1=O (centres undefined)
IC50 (PEG-3 [1]; [3]): 6.47 µM | IC50 (PEG-3 [1]; [4]): 3.62 µM | IC50 (PEG-3 [2]): 5.04 µM | IC50 (Rat fibroblasts (CREF); mean of runs): 9.11 µM | IC50 (Rat fibroblasts (CREF); [3]): 9.32 µM | IC50 (Rat fibroblasts (CREF); [4]): 8.9 µM

Structure (SMILES): O=C(CN1C(=O)c2ccccc2S1(=O)=O)c1ccc2c(c1)OCCCO2
IC50 (PEG-3 [1]; [3]): 0.77 µM | IC50 (PEG-3 [1]; [4]): 0.411 µM | IC50 (PEG-3 [2]): 0.59 µM | IC50 (Rat fibroblasts (CREF); mean of runs): 1.28 µM | IC50 (Rat fibroblasts (CREF); [3]): 1.07 µM | IC50 (Rat fibroblasts (CREF); [4]): 1.48 µM

Structure (SMILES): OCC1OC(n2ccc3c(NO)ncnc32)C(O)C1O (centres undefined)
IC50 (PEG-3 [1]; [3]): 0.433 µM | IC50 (PEG-3 [1]; [4]): 0.323 µM | IC50 (PEG-3 [2]): 0.378 µM | IC50 (Rat fibroblasts (CREF); mean of runs): 3.21 µM | IC50 (Rat fibroblasts (CREF); [3]): 2.77 µM | IC50 (Rat fibroblasts (CREF); [4]): 3.64 µM

Structure (SMILES): CC(=O)CSc1ccc(-c2nc3cc(C)c(C)cc3[nH]2)cn1
IC50 (PEG-3 [1]; [3]): 2.21 µM | IC50 (PEG-3 [1]; [4]): 1.84 µM | IC50 (PEG-3 [2]): 2.02 µM | IC50 (Rat fibroblasts (CREF); mean of runs): 2.08 µM | IC50 (Rat fibroblasts (CREF); [3]): 1.79 µM | IC50 (Rat fibroblasts (CREF); [4]): 2.37 µM

Structure (SMILES): COC(=O)c1nn(-c2ccc3c(c2)CCN3C(C)=O)cc1O
IC50 (PEG-3 [1]; [3]): 3.93 µM | IC50 (PEG-3 [1]; [4]): 5.69 µM | IC50 (PEG-3 [2]): 4.81 µM | IC50 (Rat fibroblasts (CREF); mean of runs): 4.48 µM | IC50 (Rat fibroblasts (CREF); [3]): 5.01 µM | IC50 (Rat fibroblasts (CREF); [4]): 3.95 µM

Now from value to molecule, other results behind:

IC50 (PEG-3 [2]): 4.06 µM
Structure (SMILES): C(=N\Nc1nc2ccccc2[nH]1)/c1ccccn1
IC50 (PEG-3 [1]; [3]): 4.26 µM | IC50 (PEG-3 [1]; [4]): 3.87 µM | IC50 (Rat fibroblasts (CREF); mean of runs): 1.48 µM | IC50 (Rat fibroblasts (CREF); [3]): 1.14 µM | IC50 (Rat fibroblasts (CREF); [4]): 1.83 µM

IC50 (PEG-3 [2]): 0.957 µM
Structure (SMILES): CCN1C=CC(=C2C(=O)c3ccccc3C2=O)C=C1
IC50 (PEG-3 [1]; [3]): 0.834 µM | IC50 (PEG-3 [1]; [4]): 1.08 µM | IC50 (Rat fibroblasts (CREF); mean of runs): 0.85 µM | IC50 (Rat fibroblasts (CREF); [3]): 0.947 µM | IC50 (Rat fibroblasts (CREF); [4]): 0.753 µM

IC50 (PEG-3 [2]): 4.93 µM
Structure (SMILES): O=C(NCCc1ccccc1)c1ccc2c(c1)OCO2
IC50 (PEG-3 [1]; [3]): 3.97 µM | IC50 (PEG-3 [1]; [4]): 5.89 µM | IC50 (Rat fibroblasts (CREF); mean of runs): 6.29 µM | IC50 (Rat fibroblasts (CREF); [3]): 6.89 µM | IC50 (Rat fibroblasts (CREF); [4]): 5.68 µM

IC50 (PEG-3 [2]): inactive
Structure (SMILES): CC(C)(C)c1ccc(C(=O)O/N=C(\N)c2ccccn2)cc1
IC50 (PEG-3 [1]; [3]): 0.367 µM | IC50 (PEG-3 [1]; [4]): > 100 µM | IC50 (Rat fibroblasts (CREF); mean of runs): 9.84 µM | IC50 (Rat fibroblasts (CREF); [3]): 9.33 µM | IC50 (Rat fibroblasts (CREF); [4]): 10.3 µM

IC50 (PEG-3 [2]): 1.54 µM
Structure (SMILES): Cc1ccc(-c2nnc(SCC(=O)Nc3ccccc3F)o2)cc1
IC50 (PEG-3 [1]; [3]): 1.45 µM | IC50 (PEG-3 [1]; [4]): 1.64 µM | IC50 (Rat fibroblasts (CREF); mean of runs): 3.27 µM | IC50 (Rat fibroblasts (CREF); [3]): 3.45 µM | IC50 (Rat fibroblasts (CREF); [4]): 3.08 µM

IC50 (PEG-3 [2]): 5.19 µM
Structure (SMILES): O=C(N/N=C/c1cccs1)c1n[nH]c2c1CCCC2
IC50 (PEG-3 [1]; [3]): 3.45 µM | IC50 (PEG-3 [1]; [4]): 6.93 µM | IC50 (Rat fibroblasts (CREF); mean of runs): 6 µM | IC50 (Rat fibroblasts (CREF); [3]): 5.1 µM | IC50 (Rat fibroblasts (CREF); [4]): 6.91 µM

IC50 (PEG-3 [2]): 4.32 µM
Structure (SMILES): CN(C)c1ccc(/C=C(\C#N)c2ccccn2)cc1
IC50 (PEG-3 [1]; [3]): 4.25 µM | IC50 (PEG-3 [1]; [4]): 4.38 µM | IC50 (Rat fibroblasts (CREF); mean of runs): 0.639 µM | IC50 (Rat fibroblasts (CREF); [3]): 0.531 µM | IC50 (Rat fibroblasts (CREF); [4]): 0.747 µM

IC50 (PEG-3 [2]): 6.1 µM
Structure (SMILES): Brc1ccc(N=Nc2ccc3ccccc3n2)cc1
IC50 (PEG-3 [1]; [3]): 5.75 µM | IC50 (PEG-3 [1]; [4]): 6.45 µM | IC50 (Rat fibroblasts (CREF); mean of runs): 0.456 µM | IC50 (Rat fibroblasts (CREF); [3]): 0.213 µM | IC50 (Rat fibroblasts (CREF); [4]): 0.698 µM

IC50 (PEG-3 [2]): 0.865 µM
Structure (SMILES): COC(=O)Cc1[nH]n(-c2nc3ccccc3s2)c(=O)c1C(C)=Nc1ccc(C)cc1
IC50 (PEG-3 [1]; [3]): 0.98 µM | IC50 (PEG-3 [1]; [4]): 0.751 µM | IC50 (Rat fibroblasts (CREF); mean of runs): 14.8 µM | IC50 (Rat fibroblasts (CREF); [3]): 25.2 µM | IC50 (Rat fibroblasts (CREF); [4]): 4.52 µM

IC50 (PEG-3 [2]): 6.27 µM
Structure (SMILES): Cc1ccc(C(=O)CN2C(=O)c3ccccc3S2(=O)=O)cc1
IC50 (PEG-3 [1]; [3]): 6.12 µM | IC50 (PEG-3 [1]; [4]): 6.43 µM | IC50 (Rat fibroblasts (CREF); mean of runs): 8.72 µM | IC50 (Rat fibroblasts (CREF); [3]): 8.77 µM | IC50 (Rat fibroblasts (CREF); [4]): 8.68 µM

IC50 (PEG-3 [2]): 0.538 µM
Structure (SMILES): CCCN1C=CC(=C2C(=O)c3ccccc3C2=O)C=C1
IC50 (PEG-3 [1]; [3]): 0.783 µM | IC50 (PEG-3 [1]; [4]): 0.292 µM | IC50 (Rat fibroblasts (CREF); mean of runs): 0.538 µM | IC50 (Rat fibroblasts (CREF); [3]): 0.469 µM | IC50 (Rat fibroblasts (CREF); [4]): 0.606 µM

IC50 (PEG-3 [2]): inactive
Structure (SMILES): CN=c1scc(-c2cccs2)n1/N=C/c1ccccc1O
IC50 (PEG-3 [1]; [3]): 0.26 µM | IC50 (PEG-3 [1]; [4]): > 100 µM | IC50 (Rat fibroblasts (CREF); mean of runs): 5.44 µM | IC50 (Rat fibroblasts (CREF); [3]): 5.28 µM | IC50 (Rat fibroblasts (CREF); [4]): 5.6 µM

IC50 (PEG-3 [2]): 2.22 µM
Structure (SMILES): O=C(/C=C/c1ccccc1)Nc1cccc(C(=O)O)c1
IC50 (PEG-3 [1]; [3]): 1.79 µM | IC50 (PEG-3 [1]; [4]): 2.64 µM | IC50 (Rat fibroblasts (CREF); mean of runs): 5.31 µM | IC50 (Rat fibroblasts (CREF); [3]): 4.02 µM | IC50 (Rat fibroblasts (CREF); [4]): 6.6 µM

IC50 (PEG-3 [2]): 3.51 µM
Structure (SMILES): CCCOc1ccc2cc(-c3ccccn3)c(=O)oc2c1
IC50 (PEG-3 [1]; [3]): 2.05 µM | IC50 (PEG-3 [1]; [4]): 4.96 µM | IC50 (Rat fibroblasts (CREF); mean of runs): 1.33 µM | IC50 (Rat fibroblasts (CREF); [3]): 1.09 µM | IC50 (Rat fibroblasts (CREF); [4]): 1.58 µM
